Assay results from patent publication US9512087B2, “Hybrid molecules containing pharmacophores of fluconazole as antifungal agents and their preparation” (Council for Scientific & Industrial Research, priority 2011, dated 2016).
Converted amounts (≈) assume the structure as drawn.

What was measured:
Assay in all cases: Antifungal MIC, broth dilution
[1] = test system: C. neoformans ATCC 34664; format: cell-based; conditions: end point 48 hours; for MIC50: Cryptococcus neoformans, ATCC34664, RPMI 1640 with MOPS, read-out: Cn01 MIC50
[2] = test system: C. albicans ATCC 24433; format: cell-based, Candida albicans; conditions: end point 48 hours; for MIC80 / MIC50: Candida albicans, ATCC24433, RPMI 1640 with MOPS; for MIC80: read-out: Ca01 A: MIC80; for MIC50: read-out: Ca01 B: MIC50
Description: (§1) The compounds of Formula 1 were tested for antifungal activity against Candida albicans, Aspergillus niger and Fusarium proliferatum. In vitro evaluation of antifungal activity was performed by determining the minimum inhibitory concentration (MIC) following standard methods (CLSI: Reference method for broth dilution antifungal susceptibility testing of yeasts; Approved standard, second edition M27-A2, 2002; CLSI: Reference method for broth dilution antifungal susceptibility testing of filamentous fungi; Approved standard M38-A, 2002). Anti-fungal susceptibility testing of these anti-fungal compounds was done by broth dilution method using RPMI 1640 medium with MOPS buffer. Known anti-fungal agents like fluconazole and amphotericin-B were used as positive control. End points were determined after 48 hours visually and by using spectrophotometer wherever necessary. Different dilutions were tried and various sets of experiments performed. The activity parameters are enumerated in Table 5.

[3] = test system: A. niger ATCC 16404; format: cell-based, Aspergillus niger; conditions: end point 48 hours; for MIC50: Aspergillus niger, ATCC16404, RPMI 1640 with MOPS, read-out: An01 MIC50
Description: as §1

[4] = test system: F. proliferatum ATCC 10052; format: cell-based, Fusarium proliferatum; conditions: end point 48 hours; for MIC50: Fusarium proliferatum, ATCC10052, RPMI 1640 with MOPS, read-out: Fp01 MIC50
Description: as §1

[5] = test system: C. krusei ATCC 6258; format: cell-based; conditions: end point 48 hours; for MIC50: Pichia kudriavzevii, ATCC6258, RPMI 1640 with MOPS, read-out: Ck01 MIC50
[6] = test system: C. glabrata ATCC 90030; format: cell-based; conditions: end point 48 hours; for MIC50: Nakaseomyces glabratus, ATCC90030, RPMI 1640 with MOPS, read-out: Cg01 MIC50
[7] = test system: A. fumigatus ATCC 46645; format: cell-based; conditions: end point 48 hours; for MIC50: Aspergillus fumigatus, ATCC46645, RPMI 1640 with MOPS, read-out: Afm01 MIC50
[8] = test system: C. tropicalis ATCC 750; format: cell-based; conditions: end point 48 hours; for MIC50: Candida tropicalis, ATCC750, RPMI 1640 with MOPS, read-out: Ct01 MIC50

SMILES	MIC50 [1] [µg/mL]	MIC80 [2] [µg/mL]	MIC50 [2] [µg/mL]	MIC50 [3] [µg/mL]	MIC50 [4] [µg/mL]	MIC50 [5] [µg/mL]	MIC50 [6] [µg/mL]	MIC50 [7] [µg/mL]	MIC50 [8] [µg/mL]	Cn01 MIC50 ([1]; RPMI 1640 with MOPS) [µg/mL]	Ca01 A: MIC80 ([2]; RPMI 1640 with MOPS) [µg/mL]	Ca01 B: MIC50 ([2]; RPMI 1640 with MOPS) [µg/mL]	An01 MIC50 ([3]; RPMI 1640 with MOPS) [µg/mL]	Fp01 MIC50 ([4]; RPMI 1640 with MOPS) [µg/mL]	Ck01 MIC50 ([5]; RPMI 1640 with MOPS) [µg/mL]	Cg01 MIC50 ([6]; RPMI 1640 with MOPS) [µg/mL]	Afm01 MIC50 ([7]; RPMI 1640 with MOPS) [µg/mL]	Ct01 MIC50 ([8]; RPMI 1640 with MOPS) [µg/mL]
COc1ccc(/C=C/C(=O)c2ccc(OC[C@](O)(Cn3cncn3)c3ccc(F)cc3F)cc2)cc1 [R-(−)-1A-2]	0.5 (≈ 1.02 µM)	0.12 (≈ 0.244 µM)	0.06 (≈ 0.122 µM)	2 (≈ 4.07 µM)	> 4	2 (≈ 4.07 µM)	0.06 (≈ 0.122 µM)	> 4	0.25 (≈ 0.509 µM)									
COc1ccc(/C=C/C(=O)c2ccc(OCC(O)(Cn3cncn3)c3ccc(Br)cc3)cc2)cc1 (stereo not drawn) [Compound 1A-11]	1 (≈ 1.87 µM)	1 (≈ 1.87 µM)	0.5 (≈ 0.936 µM)	> 4	> 4	> 4	1 (≈ 1.87 µM)	> 4	> 4									
O=C(/C=C/c1ccc(Cl)cc1Cl)c1ccc(OCC(O)(Cn2cncn2)c2ccc(F)cc2F)cc1 (stereo not drawn) [Compound 1A-7, (E)-3-(2,4-dichlorophenyl)-1-(4-(2-(2,4-difluorophenyl)-2-hydroxy-3-(1H-1,2,4-triazol-1-yl)propoxy)phenyl)prop-2-en-1-one]	2 (≈ 3.77 µM)	0.25 (≈ 0.471 µM)	0.25 (≈ 0.471 µM)	> 4	> 4	2 (≈ 3.77 µM)	0.5 (≈ 0.943 µM)	> 4	1 (≈ 1.89 µM)									
O=C(/C=C/c1c2ccccc2cc2ccccc12)c1ccc(OCC(O)(Cn2cncn2)c2ccc(F)cc2F)cc1 (stereo not drawn) [Compound 1A-15]	2 (≈ 3.56 µM)	> 2	> 2	> 2	> 2	> 2	2 (≈ 3.56 µM)	> 2	> 2									
O=C(/C=C/c1ccccc1F)c1ccc(OCC(O)(Cn2cncn2)c2ccc(F)cc2F)cc1 (stereo not drawn) [Compound 1A-8]	2 (≈ 4.17 µM)	0.12 (≈ 0.25 µM)	0.12 (≈ 0.25 µM)	> 4	> 4	4 (≈ 8.34 µM)	0.25 (≈ 0.521 µM)	> 4	0.5 (≈ 1.04 µM)									
COc1cc(/C=C/C=O)ccc1OCC(O)(Cn1cncn1)c1ccc(F)cc1F (stereo not drawn) [Compound 1A-29]	16 (≈ 38.5 µM)	0.5 (≈ 1.2 µM)	0.25 (≈ 0.602 µM)	> 64	> 64	32 (≈ 77 µM)	1 (≈ 2.41 µM)	> 64	8 (≈ 19.3 µM)									
O=C(/C=C/c1ccc(Cl)cc1)c1ccc(OCC(O)(Cn2cncn2)c2ccc(F)cc2F)cc1 (stereo not drawn) [Compound 1A-6]	0.5 (≈ 1.01 µM)	0.25 (≈ 0.504 µM)	0.5 (≈ 1.01 µM)	> 4	> 4	2 (≈ 4.03 µM)	0.5 (≈ 1.01 µM)	> 4	0.5 (≈ 1.01 µM)									
O=C(/C=C/c1ccc(OCC(O)(Cn2cncn2)c2ccc(F)cc2F)cc1)c1ccc(Cl)cc1Cl (stereo not drawn) [Compound 1A-22]	1 (≈ 1.89 µM)	0.25 (≈ 0.471 µM)	0.12 (≈ 0.226 µM)	> 4	> 4	2 (≈ 3.77 µM)	0.5 (≈ 0.943 µM)	> 4	1 (≈ 1.89 µM)									
OC(Cn1cncn1)(Cn1cncn1)c1ccc(F)cc1F [FLU, fluconazole]	2 (≈ 6.53 µM)	1 (≈ 3.27 µM)	0.25 (≈ 0.816 µM)	> 128	> 128	32 (≈ 104 µM)	1 (≈ 3.27 µM)	> 128	1 (≈ 3.27 µM)									
CCCCCCCCCCCCCCC(=O)/C=C/c1ccc(OCC(O)(Cn2cncn2)c2ccc(F)cc2F)cc1 (stereo not drawn) [Compound 1A-27]										>1	>1	>1	>1	>1	>1	>1	>1	>1
COc1ccc(/C=C/C(=O)c2ccc(OC[C@@](O)(Cn3cncn3)c3ccc(F)cc3F)cc2)cc1 [S-(+)-1A-2]	2 (≈ 4.07 µM)	1 (≈ 2.03 µM)	0.5 (≈ 1.02 µM)	> 4	> 4	> 4	1 (≈ 2.03 µM)	> 4	2 (≈ 4.07 µM)									
